Values after ≈ are worked out from the molar mass of the structure shown.
How the values were obtained:
[1] = test system: S. haemolyticus (32) clinical isolates; assay: Susceptibility of clinical isolates (MIC); assay type: cell-based, Staphylococcus haemolyticus; details: for MIC50 / MIC90 / MIC: Staphylococcus haemolyticus, S. haemolyticus, 32 clinical isolates; for MIC50: read-out: MIC50; for MIC90: read-out: MIC90; for MIC: read-out: MIC Range; for Cumulative % of strains inhibited at MIC / No. of strains inhibited at MIC: S. haemolyticus (32)
Protocol: (§1) Susceptibility testing of oxazolidinone-fluoroquinolone hybrids against various bacteria was performed by the broth microdilution method as outlined by the Clinical and Laboratory Standards Institute (CLSI). Three types of media, including cation-adjusted Mueller Hinton broth, Haemophilus Test Medium and cation-adjusted Mueller Hinton broth that contained 3%–5% lysed horse blood, were used to culture the corresponding bacteria. […] A final inoculum of 5 × 10^5 CFU/mL was used and plates were read after incubation for 16–24 h at 35 °C. […] Standard quality control strains (ATCC) were included throughout. Each determination was repeated in triplicate.

[2] = test system: E. faecalis (72) clinical isolates; assay: Susceptibility of clinical isolates (MIC); assay type: cell-based, Enterococcus faecalis; details: for MIC Range / MIC50 / MIC90: E. faecalis, 72 clinical isolates; for MIC50 / MIC90: Enterococcus faecalis; for Cumulative % of strains inhibited at MIC / No. of strains inhibited at MIC: E. faecalis (72)
Protocol: as §1

VRE (13B330) = assay: MIC, broth microdilution (CLSI), clinical isolate; assay type: cell-based, vancomycin-resistant enterococcus; details: Enterococcus
Excerpt: (§2) 6 standard strains and 3 clinical isolates were used to the preliminary evaluation of in vitro antibacterial activities of oxazolidinone-fluoroquinolone hybrids. For the further evaluation of hybrids OBP-4 and OBP-5, 263 clinical isolates including S. aureus (46), S. haemolyticus(32), S. epidermidis (10), E. faecalis (72), E. faecium (47), S. pneumoniae (13), H. parasuis (34), S. suis (9), and 8 resistant strains including MRSA, MRSE, CIP-resistant S. aureus and S. haemolyticus, VAN and quinolone-resistant S. pneumoniae, LZD-resistant E. faecalis, LZD/VAN and quinolone-resistant E. faecium were collected and tested.
Susceptibility testing of oxazolidinone-fluoroquinolone hybrids against various bacteria was performed by the broth microdilution method as outlined by the Clinical and Laboratory Standards Institute (CLSI). Three types of media, including cation-adjusted Mueller Hinton broth, Haemophilus Test Medium and cation-adjusted Mueller Hinton broth that contained 3%–5% lysed horse blood, were used to culture the corresponding bacteria. All compounds including comparator drugs were dissolved in an appropriate solvent at a concentration of 2.048 mg/mL and then serially diluted two-fold to provide the required concentrations. A final inoculum of 5 × 10^5 CFU/mL was used and plates were read after incubation for 16–24 h at 35 °C. […] Standard quality control strains (ATCC) were included throughout. Each determination was repeated in triplicate.

[3] = test system: S. aureus (46) clinical isolates; assay: Susceptibility of clinical isolates (MIC); assay type: cell-based, Staphylococcus aureus; details: for MIC50 / MIC90 / MIC: Staphylococcus aureus, S. aureus, 46 clinical isolates; for MIC50: read-out: MIC50; for MIC90: read-out: MIC90; for MIC: read-out: MIC Range; for Cumulative % of strains inhibited at MIC / No. of strains inhibited at MIC: S. aureus (46)
Protocol: as §1

[4] = test system: protein synthesis (E. coli extract-based cell-free protein expression system); assay: In vitro transcription/translation assay (S30 T7 cell-free system, Renilla luciferase); assay type: biochemical; details: for IC50: E. coli S30 T7 cell-free transcription/translation, 1 h, 37 °C, read-out: IC50 Inhib. of Protein Synthesis
Protocol: The influence of hybrids OBP-4 and OBP-5 against protein synthesis was confirmed by the S30 T7 High-Yield Protein Expression System (Promega Co., Ltd.). The S30 T7 High-Yield Protein Expression System is an E. coli extract-based cell-free protein expression system, which can effectively transcribe and translate DNA fragments with a T7 promoter. The reaction system containing 1 μg plasmid DNA, 20 μL S30 Premix Plus and 18 μL T7 S30 Extract with or without compounds was incubated for 1 h at 37 °C with a rotational speed of 250 rpm, and terminated by cooling in ice for 5 min in a 96-well white multi-well plate. Then, 1.25 μL of the translation reaction mixture was added to 48.75 μL of Renilla Luciferase Assay Lysis Buffer, and mixed with 50 μL of Renilla Luciferase Assay Reagent (cat no. E2810; Promega). Renilla luciferase activity was measured on EnSpire® Multimode Plate Reader (PerkinElmer, Waltham, MA, USA). […] LZD was used as a positive control.

[5] = test system: LZD-resistant E. faecalis; assay: microbe, parasite or virus in culture; assay type: cell-based; details: Enterococcus faecalis
Protocol: 6 standard strains and 3 clinical isolates were used to the preliminary evaluation of in vitro antibacterial activities of oxazolidinone-fluoroquinolone hybrids.
as §1

Gram-positive bacteria = assay: MIC summary, Gram-positive bacteria of the preliminary panel; assay type: cell-based
Excerpt: as §2
Susceptibility testing of oxazolidinone-fluoroquinolone hybrids against various bacteria was performed by the broth microdilution method as outlined by the Clinical and Laboratory Standards Institute (CLSI). Three types of media, including cation-adjusted Mueller Hinton broth, Haemophilus Test Medium and cation-adjusted Mueller Hinton broth that contained 3%–5% lysed horse blood, were used to culture the corresponding bacteria. All compounds including comparator drugs were dissolved in an appropriate solvent at a concentration of 2.048 mg/mL and then serially diluted two-fold to provide the required concentrations. A final inoculum of 5 × 10^5 CFU/mL was used and plates were read after incubation for 16–24 h at 35 °C. […]

[6] = Acute oral toxicity, limit test (OECD 425); assay type: in vivo; details: female, Kunming, mouse, in vivo, 2000 mg/kg·bw; mice, single oral dose, limit test 2000 mg/kg, 14 d observation
Protocol: (§3) Female Kunming mice (SPF grade, 18–22 g) were obtained from laboratory animal center of Lanzhou Veterinary Research Institute (Lanzhou, China). Mice were maintained under the standard conditions of 12 h light/dark cycle, room temperate (22 ± 3 °C), 50–60% relative humidity. They were fed normally with an unlimited supply of feed and water for seven days and deprived of food but not water for 4 h prior to the experiment. The toxicity test was supported by the Animal Ethics Committee of Lanzhou Institute of Husbandry and Pharmaceutical Sciences.
(§4) The acute toxicity of hybrids OBP-4 and OBP-5 was conducted by the limit test described in the OECD guideline 425 [39]. The mice were divided randomly into two groups, five animals in each group. One group of mice received a single oral dose of hybrids OBP-4 or OBP-5 at 2000 mg/kg·bw, and the other group of mice was given the equal volume of 0.5% CMC-Na solution (0.1 mL/10 g of body weight). Food was restored until 4 h after administration. The observation of each animal occurred according to the OECD guideline 425 [27], meaning continuously during the first 30 min, periodically during the next 24 h, and then daily thereafter until 14 d after dosing. The weight changes and mortality were calculated and recorded. The mice that survived were humanely killed at the end of the experiment.

Female Kunming mice = assay: Acute oral toxicity, limit test (OECD 425); assay type: in vivo; details: single oral dose 2000 mg/kg, 14 d observation
Protocol: as §3, §4

[7] = S. haemolyticus clinical isolates, CLSI criteria
[8] = E. faecalis clinical isolates, CLSI criteria

| SMILES | MIC50 [1] [µg/mL] | MIC90 [1] [µg/mL] | MIC [1] [µg/mL] | MIC Range [2] [µg/mL] | MIC50 [2] [µg/mL] | MIC90 [2] [µg/mL] | MIC (VRE (13B330)) [µg/mL] | MIC50 [3] [µg/mL] | MIC90 [3] [µg/mL] | MIC [3] [µg/mL] | IC50 [4] [µM] | MIC [5] [µg/mL] | Cumulative % of strains inhibited at MIC ([1]; MIC 0.125 µg/mL) [%] | No. of strains inhibited at MIC ([1]; MIC 0.125 µg/mL) | No. of strains inhibited at MIC ([1]; MIC ≤[…]) | Cumulative % of strains inhibited at MIC ([2]; MIC 0.125 µg/mL) [%] | No. of strains inhibited at MIC ([2]; MIC 0.125 µg/mL) | Cumulative % of strains inhibited at MIC ([2]; MIC 0.5 µg/mL) [%] | No. of strains inhibited at MIC ([2]; MIC 0.5 µg/mL) | Cumulative % of strains inhibited at MIC ([2]; MIC […]) [%] | further results |
| --- | --- | --- | --- | --- | --- | --- | --- | --- | --- | --- | --- | --- | --- | --- | --- | --- | --- | --- | --- | --- | --- |
| CC(=O)NC[C@H]1CN(c2ccc(N3CCOCC3)c(F)c2)C(=O)O1 [LZD, linezolid, reference compound] | 0.5 (≈ 1.48 µM) | 2 (≈ 5.93 µM) | 0.125 to 8 (≈ 0.371 to 23.7 µM) | 0.5 to 8 | 2 (≈ 5.93 µM) | 2 (≈ 5.93 µM) | 2 (≈ 5.93 µM) | 2 (≈ 5.93 µM) | 2 (≈ 5.93 µM) | 0.5 to 2 (≈ 1.48 to 5.93 µM) | 5 | 8 (≈ 23.7 µM) |  |  |  |  |  |  |  |  | CLSI %R (resistant) [1, 7]: 3.8%; CLSI %S (susceptible) [1, 7]: 96.2%; CLSI %R (resistant) [2, 8]: 2.7%; CLSI %S (susceptible) [2, 8]: 97.3%; CLSI %S (susceptible) ([3]; S. aureus clinical isolates, CLSI criteria): 100.0/- % |
| C[C@H]1CCc2c(N3CCC(O)(COc4ccc(N5C[C@H](CO)OC5=O)cc4F)CC3)c(F)cc3c(=O)c(C(=O)O)cn1c23 [OBP-4] | 0.125 (≈ 0.208 µM) | 0.125 (≈ 0.208 µM) | 0.0625 to 0.5 (≈ 0.104 to 0.834 µM) | ≤0.0625 to 1 | 0.25 (≈ 0.417 µM) | 0.25 (≈ 0.417 µM) | 0.25 (≈ 0.417 µM) | ≤ 0.0625 | 0.125 (≈ 0.208 µM) | 0.0625 to 0.25 (≈ 0.104 to 0.417 µM) | 5 | 1 (≈ 1.67 µM) | 93.8 | 16 | 14 | 36.1 | 17 | 98.6 | 2 | 95.8 | Cumulative % of strains inhibited at MIC ([1]; MIC 0.5 µg/mL): 100.0%; No. of strains inhibited at MIC ([1]; MIC 0.5 µg/mL): 2; Cumulative % of strains inhibited at MIC ([1]; MIC ≤[…]): 43.8%; Cumulative % of strains inhibited at MIC ([2]; MIC 1 µg/mL): 100.0%; No. of strains inhibited at MIC ([2]; MIC 1 µg/mL): 1; No. of strains inhibited at MIC ([2]; MIC […]): 43; Cumulative % of strains inhibited at MIC ([2]; MIC ≤[…]): 12.5%; No. of strains inhibited at MIC ([2]; MIC ≤[…]): 9; fold higher activity than comparator agents ([2]; E. faecalis clinical isolates): 2- to 16 fold; Cumulative % of strains inhibited at MIC ([3]; MIC 0.125 µg/mL): 93.5%; No. of strains inhibited at MIC ([3]; MIC 0.125 µg/mL): 17; Cumulative % of strains inhibited at MIC ([3]; MIC […]): 100.0%; No. of strains inhibited at MIC ([3]; MIC […]): 3; Cumulative % of strains inhibited at MIC ([3]; MIC ≤[…]): 56.5%; No. of strains inhibited at MIC ([3]; MIC ≤[…]): 26; MIC (Gram-positive bacteria; read-out: MICs against Gram-positive bacteria): ≤ 0.5 µg/mL; LD50 at 14 d [6]: > 2000 mg/kg; death and toxicity signs (Female Kunming mice): No death and any toxicity signs were observed |
| CC1Sc2c(C(=O)O)c(=O)c3cc(F)c(N4CCC(O)(COc5ccc(N6C[C@H](CO)OC6=O)cc5F)CC4)cc3n21 (some centres unmarked) [OBP-5] | ≤ 0.0625 | ≤ 0.0625 | 0.0625 to 0.125 (≈ 0.104 to 0.207 µM) | ≤0.0625 to 0.5 | 0.125 (≈ 0.207 µM) | 0.125 (≈ 0.207 µM) | 0.5 (≈ 0.828 µM) | ≤ 0.0625 | ≤ 0.0625 | 0.0625 to 0.25 (≈ 0.104 to 0.414 µM) | 2 | 0.25 (≈ 0.414 µM) | 100.0 | 2 | 30 | 91.7 | 49 | 100.0 | 1 | 98.6 | No. of strains inhibited at MIC ([2]; MIC […]): 5; Cumulative % of strains inhibited at MIC ([2]; MIC ≤[…]): 23.6%; No. of strains inhibited at MIC ([2]; MIC ≤[…]): 17; fold higher activity than comparator agents ([2]; E. faecalis clinical isolates): 2- to 16 fold; Cumulative % of strains inhibited at MIC ([3]; MIC 0.125 µg/mL): 97.8%; No. of strains inhibited at MIC ([3]; MIC 0.125 µg/mL): 3; Cumulative % of strains inhibited at MIC ([3]; MIC […]): 100.0%; No. of strains inhibited at MIC ([3]; MIC […]): 1; Cumulative % of strains inhibited at MIC ([3]; MIC ≤[…]): 91.3%; No. of strains inhibited at MIC ([3]; MIC ≤[…]): 42; antibacterial efficacy against Gram-positive bacteria, times stronger than LZD (Gram-positive bacteria; relative to LZD): 4–16 times; protein synthesis inhibition, fold greater than LZD ([4]; relative to IC50 of LZD): 2.5 fold; LD50 at 14 d [6]: > 2000 mg/kg; death and toxicity signs (Female Kunming mice): No death and any toxicity signs were observed |

Reference: paper PMC6514978, “Synthesis, Antibacterial Activities, Mode of Action and Acute Toxicity Studies of New Oxazolidinone-Fluoroquinolone Hybrids” (Molecules, 2019)
